Test results: patent US5627193A, “Quinoline-4-carbonylguanidine derivatives, process for producing the same and pharmaceutical preparations containing the compounds” (Mitsui Toatsu Chemicals, Inc., priority 1995, dated 1997)

Experiments:
[1] = target: T1, NHE (Na^+ /H^+ exchanger) (Rattus norvegicus, UniProt P26431); test: NHE inhibitory activity (recovery of the pH in cells after acid load, BCECF, rat mesenteric artery); type: cell-based; conditions: read-out: Percent NHE inhibition (%); for inhibition at 0.1 µM: Conc. 0.1 μM; for inhibition at 1 µM: Conc. 1 μM
T1 construct: A rat mesenteric artery was isolated; from tissue; host or cells: isolated rat mesenteric artery segments
Protocol: The NHE inhibitory activity was measured by the following method using a pH in cells as an index.
A rat mesenteric artery was isolated, and was loaded with a pH-sensitive dye BCECF. Subsequently, the tissue segments were mounted in a bath of an intracellular ion concentration measurement device (CAF-110, manufactured by Japan Spectral Co., Ltd.). The pH in cells was measured in terms of a ratio of fluorescent intensities through 2-wavelength excitation of 495 nm (pH-sensitive wavelength)/450 nm (pH-non-sensitive wavelength).
The pH in cells was shifted into acid through pretreatment with 20 mM ammonium chloride to activate NHE. At this time, when Na^+ ions were absent in an external solution, the intracellular acidosis was maintained. When Na^+ ions were present in an external solution, the pH in cells was recovered to a control value. This recovery of the pH in cells was ascribable to the activation of NHE. The NHE inhibitory activity of the medication was examined depending on whether or not this recovery was suppressed. The percent NHE inhibition was calculated from a change in pH (ΔpH) measured by the above-mentioned method using the following formula.
Percent NHE inhibition (%)={1-ΔpH (in the presence of a medication)/ΔpH (in the absence of a medication)}×100
This test was conducted by the method of C. D. Foster et al. [Am. J. Physiol., 262, 31, H1651-H1655 (1992)]. For comparison, the test was conducted with respect to guanidinocarbonylisoquinoline derivatives described in JP A 6-211799 (Family: EP590455).

[2] = test system: rat; test: Effect on ischemic arrhythmia in the rat (left coronary artery ligated for 30 minutes); type: in vivo; conditions: 1 mg/kg i.v., five minutes before the ligation; rats with arrhythmia / rats
Protocol: A rat was anesthetized with pentobarbital, and the left chest was opened under artificial respiration. Then, the left coronary artery was ligated for 30 minutes. The effect of the test compound on ischemic arrhythmia was examined. The test agent was administered intravenously (i.v.) five minutes before the ligation. The arrhythmias were evaluated according to the guidelines of the Lambeth conventions [Cardiovasc. Res., 22, 447-455 (1988)].

[3] = Toxicity test, mortality of mice after 24 hours; conditions: mouse, in vivo, iv, 100 mg/kg (i.v.), 3 mice
Protocol: The test compound was administered to a ddy-strain male mouse, and the toxicity was examined. The test compound was administered intravenously (i.v.) in a dose of 100 mg/kg, and the toxicity was evaluated in terms of mortality of mice after 24 hours of the administration (number of specimens: one group consisting of 3 mice).

[4] = test system: cardiac hypertrophy; conditions: Circulation, 86 (Suppl. I) I-177 (1992); cited from earlier work

T1 sequence (P26431 whole entry): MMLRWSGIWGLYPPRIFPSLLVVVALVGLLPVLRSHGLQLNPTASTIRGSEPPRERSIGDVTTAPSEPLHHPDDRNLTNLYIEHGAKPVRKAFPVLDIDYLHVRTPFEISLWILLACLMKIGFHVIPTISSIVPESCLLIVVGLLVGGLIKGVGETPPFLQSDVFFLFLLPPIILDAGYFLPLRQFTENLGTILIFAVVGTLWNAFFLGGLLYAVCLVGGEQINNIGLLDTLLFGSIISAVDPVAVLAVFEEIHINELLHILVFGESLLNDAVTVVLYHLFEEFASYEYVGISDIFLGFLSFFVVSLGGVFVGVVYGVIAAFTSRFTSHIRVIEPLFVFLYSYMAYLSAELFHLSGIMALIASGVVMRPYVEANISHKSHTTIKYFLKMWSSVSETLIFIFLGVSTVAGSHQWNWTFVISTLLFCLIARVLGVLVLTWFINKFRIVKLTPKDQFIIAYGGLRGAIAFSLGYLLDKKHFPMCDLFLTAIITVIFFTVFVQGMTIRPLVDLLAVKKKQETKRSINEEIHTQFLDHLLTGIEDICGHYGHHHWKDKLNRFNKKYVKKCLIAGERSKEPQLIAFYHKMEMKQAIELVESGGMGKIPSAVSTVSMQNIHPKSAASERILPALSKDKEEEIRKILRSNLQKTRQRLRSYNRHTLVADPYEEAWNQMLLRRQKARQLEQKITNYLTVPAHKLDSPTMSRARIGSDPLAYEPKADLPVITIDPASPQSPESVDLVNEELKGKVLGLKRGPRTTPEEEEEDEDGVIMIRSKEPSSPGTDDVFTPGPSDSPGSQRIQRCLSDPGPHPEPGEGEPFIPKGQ
T1 sequence (P61023 2-195 partner limits assumed): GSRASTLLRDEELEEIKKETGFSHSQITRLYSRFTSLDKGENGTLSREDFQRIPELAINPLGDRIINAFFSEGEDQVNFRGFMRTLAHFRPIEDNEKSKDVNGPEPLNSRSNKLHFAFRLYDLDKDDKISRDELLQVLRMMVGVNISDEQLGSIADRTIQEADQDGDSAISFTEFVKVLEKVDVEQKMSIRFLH

SMILES | inhibition at 0.1 µM [1] [%] | inhibition at 1 µM [1] [%] | Incidence of arrhythmia, VF (ventricular fibrillation) [2] | Incidence of arrhythmia, VT (ventricular tachycardia) [2] | mortality at 24 h [3] [%] | suppression of cardiac hypertrophy [4]
NC(N)=NC(=O)c1cc(-c2ccccc2)nc2ccccc12 [Example 1, 2-phenylquinoline-4-carbonylguanidine] | 5.2 | 52.8 | – | – | – | –
Cc1ccc(-c2cc(C(=O)N=C(N)N)c3ccccc3n2)cc1 [Example 2, 2-(4'-methylphenyl)quinoline-4-carbonylguanidine] | 10.6 | 41.4 | – | – | – | –
Cc1cccc(-c2cc(C(=O)N=C(N)N)c3ccccc3n2)c1 [Example 3, 2-(3'-methylphenyl)quinoline-4-carbonylguanidine] | 21.2 | 59.8 | – | – | – | –
Cc1ccccc1-c1cc(C(=O)N=C(N)N)c2ccccc2n1 [Example 4, 2-(2'-methylphenyl)quinoline-4-carbonylguanidine] | 49.2 | 65.6 | – | – | – | –
CC(C)c1ccccc1-c1cc(C(=O)N=C(N)N)c2ccccc2n1 [Example 5, 2-(2'-isopropylphenyl)quinoline-4-carbonylguanidine] | 29.3 | 42.3 | – | – | – | –
Cc1ccc(-c2cc(C(=O)N=C(N)N)c3ccccc3n2)c(C)c1 [Example 6, 2-(2',4'-dimethylphenyl)quinoline-4-carbonylguanidine] | 36.4 | 55.3 | – | – | – | –
Cc1ccc(-c2cc(C(=O)N=C(N)N)c3ccccc3n2)cc1C [Example 7, 2-(3',4'-dimethylphenyl)quinoline-4-carbonylguanidine] | 33.1 | 38.8 | – | – | – | –
Cc1cc(C)c(-c2cc(C(=O)N=C(N)N)c3ccccc3n2)c(C)c1 [Example 8, 2-(2',4',6'-trimethylphenyl)quinoline-4-carbonylguanidine] | 23.7 | 36.3 | – | – | – | –
NC(N)=NC(=O)c1cc(-c2ccccc2C(F)(F)F)nc2ccccc12 [Example 11, 2-(2'-trifluoromethylphenyl)quinoline-4-carbonylguanidine] | 22.7 | 46.1 | – | – | – | –
NC(N)=NC(=O)c1cc(-c2ccc(F)cc2)nc2ccccc12 [Example 13, 2-(4'-fluorophenyl)quinoline-4-carbonylguanidine] | 14.4 | 39.8 | – | – | – | –
NC(N)=NC(=O)c1cc(-c2ccccc2Cl)nc2ccccc12 [Example 14, 2-(2'-chlorophenyl)quinoline-4-carbonylguanidine] | 28.8 | 34.3 | – | – | – | –
NC(N)=NC(=O)c1cc(-c2cccc([N+](=O)[O-])c2)nc2ccccc12 [Example 19, 2-(3'-nitrophenyl)quinoline-4-carbonylguanidine] | 22.3 | 35.6 | – | – | – | –
NC(N)=NC(=O)c1cc(-c2cccc(N)c2)nc2ccccc12 [Example 20, 2-(3'-aminophenyl)quinoline-4-carbonylguanidine] | 36.2 | 42.2 | – | – | – | –
Cc1c(-c2ccccc2)nc2ccccc2c1C(=O)N=C(N)N [Example 21, 2-phenyl-3-methylquinoline-4-carbonylguanidine] | 1.5 | 45 | – | – | – | –
Cc1ccc2nc(-c3ccccc3)cc(C(=O)N=C(N)N)c2c1 [Example 22, 2-phenyl-6-methylquinoline-4-carbonylguanidine] | 28.9 | 57.9 | – | – | – | –
Cc1ccc2c(C(=O)N=C(N)N)cc(-c3ccccc3)nc2c1 [Example 23, 2-phenyl-7-methylquinoline-4-carbonylguanidine] | 2.8 | 49.8 | – | – | – | –
Cc1cccc2c(C(=O)N=C(N)N)cc(-c3ccccc3)nc12 [Example 24, 2-phenyl-8-methylquinoline-4-carbonylguanidine] | 8.1 | 50 | – | – | – | –
NC(N)=NC(=O)c1cc(-c2ccccc2)nc2cccc(Cl)c12 [Example 28, 2-phenyl-5-chloroquinoline-4-carbonylguanidine] | 33.7 | 63.3 | – | – | – | –

SMILES | inhibition at 0.1 µM [1] [%] | inhibition at 1 µM [1] [%] | Incidence of arrhythmia, VF (ventricular fibrillation) [2] | Incidence of arrhythmia, VT (ventricular tachycardia) [2] | mortality at 24 h [3] [%] | suppression of cardiac hypertrophy [4]
NC(N)=NC(=O)c1cc(-c2ccccc2)nc2ccc(Cl)cc12 [Example 29, 2-phenyl-6-chloroquinoline-4-carbonylguanidine] | 0 | 38.6 | – | – | – | –
NC(N)=NC(=O)c1cc(-c2ccccc2)nc2c(Cl)cccc12 [Example 31, 2-phenyl-8-chloroquinoline-4-carbonylguanidine] | 12 | 57 | – | – | – | –
Cc1cc(Cl)cc2c(C(=O)N=C(N)N)cc(-c3ccccc3)nc12 [Example 32, 2-phenyl-6-chloro-8-methylquinoline-4-carbonylguanidine] | 28.6 | 35.7 | – | – | – | –
COc1ccc2c(C(=O)N=C(N)N)cc(-c3ccccc3)nc2c1 [Example 34, 2-phenyl-7-methoxyquinoline-4-carbonylguanidine] | 29.8 | 53 | – | – | – | –
COc1cccc2c(C(=O)N=C(N)N)cc(-c3ccccc3)nc12 [Example 35, 2-phenyl-8-methoxyquinoline-4-carbonylguanidine] | 47.4 | 63.6 | – | – | – | –
COc1cc(OC)c2c(C(=O)N=C(N)N)cc(-c3ccccc3)nc2c1 [Example 36, 2-phenyl-5,7-dimethoxyquinoline-4-carbonylguanidine] | 53.2 | 69.9 | 0/4 | 2/4 | – | –
COc1cc(OC)c2c(C(=O)N=C(N)N)cc(-c3ccccc3C)nc2c1 [Example 37, 2-(2'-methylphenyl)-5,7-dimethoxyquinoline-4-carbonylguanidine] | 70.8 | 84.2 | 0/5 | 3/5 | – | –
COc1cc2nc(-c3ccccc3C)cc(C(=O)N=C(N)N)c2cc1OC [Example 39, 2-(2'-methylphenyl)-6,7-dimethoxyquinoline-4-carbonylguanidine] | 3.4 | 41.5 | – | – | – | –
COc1cc(OC)c2nc(-c3ccccc3)cc(C(=O)N=C(N)N)c2c1 [Example 40, 2-phenyl-6,8-dimethoxyquinoline-4-carbonylguanidine] | 18.3 | 31 | – | – | – | –
COc1ccc(OC)c2c(C(=O)N=C(N)N)cc(-c3ccccc3C)nc12 [Example 42, 2-(2'-methylphenyl)-5,8-dimethoxyquinoline-4-carbonylguanidine] | 72.7 | 89.1 | 0/4 | 2/4 | 0 | –
COc1ccc2c(C(=O)N=C(N)N)cc(-c3ccccc3C)nc2c1OC [Example 43, 2-(2'-methylphenyl)-7,8-dimethoxyquinoline-4-carbonylguanidine] | 28 | 37.6 | – | – | – | –
COCCOc1cccc2c(C(=O)N=C(N)N)cc(-c3ccccc3)nc12 [Example 44, 2-phenyl-8-methoxyethyloxyquinoline-4-carbonylguanidine] | 28.4 | 62.9 | – | – | – | –
COCOc1ccc2c(C(=O)N=C(N)N)cc(-c3ccccc3C)nc2c1 [Example 45, 2-(2'-methylphenyl)-7-methoxymethyloxyquinoline-4-carbonylguanidine] | 35 | 46.5 | – | – | – | –
Cc1ccccc1-c1cc(C(=O)N=C(N)N)c2ccc(O)cc2n1 [Example 46, 2-(2'-methylphenyl)-7-hydroxyquinoline-4-carbonylguanidine] | 39.3 | 48.8 | – | – | – | –
NC(N)=NC(=O)c1cc(-c2ccccc2)nc2c(N)cccc12 [Example 48, 2-phenyl-8-aminoquinoline-4-carbonylguanidine] | 30.6 | 41.7 | – | – | – | –
CC(=O)Nc1cccc2c(C(=O)N=C(N)N)cc(-c3ccccc3)nc12 [Example 49, 2-phenyl-8-acetylaminoquinoline-4-carbonylguanidine] | 20.8 | 51.2 | – | – | – | –
CS(=O)(=O)Nc1cccc2c(C(=O)N=C(N)N)cc(-c3ccccc3)nc12 [Example 50, 2-phenyl-8-methanesulfonylaminoquinoline-4-carbonylguanidine] | 46.2 | 66.2 | – | – | – | –
N=C(N)NC(=O)c1nc(Cl)c(N)nc1N [amiloride] | – | – | – | – | – | suppresses cardiac hypertrophy
